Source: patent publication US20230293711A1, “DISRUPTION OF CD28-SIALOSIDE LIGAND COMPLEXES TO ENHANCE T CELL ACTIVATION” (THE SCRIPPS RESEARCH INSTITUTE, priority 2020, published 2023)

Experiments:
[1] = tested on: T cells (CD4^+ and CD8^+) from murine spleen (expressing CD28); test: Binding of recombinant CD80-Fc to sialidase-treated T cells (flow cytometry); assay type: cell-based
OT-II cells [2] = test: Adoptive transfer of ex vivo desialylated CTV-stained OT-II cells into OVA experienced host mice; assay type: in vivo; conditions: cells treated ex vivo 45 min at 37° C.; OVA sensitized mice; vs normally sialylated control
Description: FIG. 8. Desialylated T cells are more readily activated in vivo. (A) WT mice were injected with OVA on day 1. On day 2, OT-II cells were treated with sialidase or PBS ex vivo for 45 min. at 37° C. and subsequently stained with CTV. These cells were then adoptively transferred into OVA experienced host mice (or naïve mice as a control). On day 5, spleens from host mice were analyzed for adoptively transferred OT-II cells and CTV dilution was evaluated. […] (C) Quantification of data from (B). […] Normalized division index corresponds to T cell division index for sialidase-treated cultures divided by the division index for the corresponding PBS treated control.
To investigate the translatability of these findings to an in vivo system, we adoptively transferred CTV-stained OT-II cells that were desialylated ex vivo into a WT host mouse. We observed that desialylated OT-II cells expanded more efficiently in vivo as compared to a normally sialylated control (FIG. 8).

[3] = tested on: Polyclonal CD8^+ T cells exhausted via chronic LCMV infection; assay type: cell-based, mice
exhausted P14 cells = assay type: cell-based, mouse
[4] = tested on: OT-I cells (CD8^+ T cells); test: OT-I proliferation (CTV dilution) in co-culture with OVA-loaded DCs with or without sialidase
[5] = tested on: OT-II cells (CD4^+ T cells); test: OT-II proliferation (CTV dilution) in co-culture with OVA-loaded DCs with or without sialidase
DCs (expressing CD80) = test: Binding of recombinant CD28-Fc to sialidase-treated DCs (flow cytometry); assay type: cell-based, mouse
OT-II cells [6] = test: APC-free expansion of OT-II cells with anti-CD3 and recombinant CD80 in the presence of soluble glycan; assay type: cell-based; conditions: soluble glycan 500 μM; anti-CD3 and recombinant CD80-Fc
Description: FIG. 7. APC-free expansion of OT-II cells in the presence of soluble glycan (500 μM). (A) Experimental setup. T cells were activated using anti-CD3 (αCD3) and recombinant CD80 (rCD80). (B) OT-II cell proliferation histograms. (C) Quantification of data from (B).
Since recombinant CD80 binding to CD28 was the sole source of co-stimulation for T cells in this experiment, we conclude that sialic acid ligands of CD28 functionally suppress CD28 mediated co-stimulation.

[7] = target: chimeric PD-1 fused to green fluorescent protein, expressed on Jurkat T cells; test: cell-based or functional assay
[8] = Sialidase activity of purified αPD1-S against MUNANA; assay type: biochemical; conditions: 1 activity unit=1 μmol min-1; purified single- and double-modified αPD1-S
Description: (§1) We investigated the possibility of using non-specific small-molecule linkers to install multiple reactive sites on three expressed αPD1 monoclonal antibodies. […] Through an inverse Electron Demand Diels Alder (iEDDA) reaction, two molecules conjugated respectively with tetrazine and TCO moieties can react rapidly and covalently under ambient conditions. Utilizing the methodology and reagents shown in the reaction scheme in FIG. 12A, we incubated αPD1 antibody clones with NHS-tetrazine 1, allowing non-selective labeling of solvent-exposed lysine residue side-chains (FIG. 12A). Simultaneously, we modified an expressed sialidase from Salmonella typhimurium (ST) containing a C-terminal cysteine though incubation with a 40-fold molar excess of TCO-maleimide 2, leading to near-complete selective modification of the free thiol group (FIG. 12A). To optimize conjugation yield, leading to maximum utilization of antibody starting material while also producing defined products with small numbers of ST per antibody, we titrated the molar ratio of NHS-tetrazine used to load the antibody with reactive groups in step one of the conjugation reaction (FIG. 12B). […]

mouse PD-1 (mPD1) = target: T1, mouse PD-1 (mPD1) (Mus musculus, UniProt Q02242); test: Binding of expressed anti-PD-1 monoclonal antibodies and conjugate to mouse PD-1 (ELISA); conditions: anti-hPD1 clones
T1 sequence (Q02242 25-288): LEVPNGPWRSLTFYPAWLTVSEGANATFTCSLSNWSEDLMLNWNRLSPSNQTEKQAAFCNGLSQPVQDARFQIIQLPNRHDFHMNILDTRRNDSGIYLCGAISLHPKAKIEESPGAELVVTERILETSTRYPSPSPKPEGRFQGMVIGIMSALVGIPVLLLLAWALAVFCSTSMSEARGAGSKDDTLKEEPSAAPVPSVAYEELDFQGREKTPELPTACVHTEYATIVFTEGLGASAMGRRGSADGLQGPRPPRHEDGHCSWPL
Excerpt: FIG. 11. Three expressed anti PD-1 monoclonal antibodies targeted respectively to either human PD-1 (hPD1) and mouse PD-1 (mPD1) bind with high specificity and affinity.
as §1

human CD28 = human CD28 (Homo sapiens, UniProt P10747); test: Steady state SPR of soluble glycan binding to surface immobilized CD28
human CD28, sequence (P10747 19-220): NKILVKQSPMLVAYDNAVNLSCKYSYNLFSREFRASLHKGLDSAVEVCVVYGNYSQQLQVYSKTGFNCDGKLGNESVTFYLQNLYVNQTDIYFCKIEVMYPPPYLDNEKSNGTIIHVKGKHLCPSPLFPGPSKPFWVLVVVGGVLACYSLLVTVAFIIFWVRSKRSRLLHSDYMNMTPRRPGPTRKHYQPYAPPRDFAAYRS
Excerpt: FIG. 5. Biophysical characterization of a CD28-sialoside interaction. Steady state SPR data for α2,3-Sialyl-triLacNAc and triLacNAc binding to surface immobilized human CD28.
As an orthogonal test for sialoside binding and to assess the affinity of a sialoside ligand, we tested the ability of surface-immobilized CD28 to bind to a soluble sialylated glycan using SPR.

mouse PD-1 (mouse) = mouse PD-1 (mouse) (UniProt Q02242); test: ELISA (FIG. 11)
[9] = target: T2, CD80 on murine dendritic cells (mouse, UniProt Q00609 38-306); test: flow cytometry on DCs with or without sialidase
T2 construct: whole, on cells; DCs (expressing CD80), untreated or treated with V. cholerae sialidase; also called B7-1
T2 sequence: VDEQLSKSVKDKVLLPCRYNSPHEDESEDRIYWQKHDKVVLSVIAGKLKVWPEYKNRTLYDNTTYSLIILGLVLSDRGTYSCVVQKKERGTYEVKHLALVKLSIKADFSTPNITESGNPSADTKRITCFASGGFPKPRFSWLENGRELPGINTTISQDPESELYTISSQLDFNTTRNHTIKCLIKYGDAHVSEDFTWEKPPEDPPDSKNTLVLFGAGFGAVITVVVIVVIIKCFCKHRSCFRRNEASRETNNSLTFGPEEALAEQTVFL

human PD-1 = target: T3, human PD-1 (human, UniProt Q15116 25-167, limits assumed); test: ELISA (FIG. 11)
T3 construct: also called hPD1
T3 sequence (Q15116 25-167 limits assumed): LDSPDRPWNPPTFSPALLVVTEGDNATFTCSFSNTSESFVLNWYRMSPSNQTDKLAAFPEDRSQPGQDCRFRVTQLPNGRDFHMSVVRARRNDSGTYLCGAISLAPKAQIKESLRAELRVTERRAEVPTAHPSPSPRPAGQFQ

[10] = OVA-loaded bone marrow derived DCs, 3 days, vs PBS
[11] = bulk OVA-loaded splenocytes, DCs differentiated using Flt3L

sialidase: free sialidase; from V. cholerae in FIG. 2 and 6, source not stated for the other experiments
binding of recombinant CD80-Fc to desialylated T cells compared to untreated controls [1]: significant enhancement
proliferation of adoptively transferred OT-II cells in vivo (OT-II cells [2]): enhanced proliferation
T cell activation (percentage of cells expressing IFN-γ and granzyme B) over peptide alone [3]: enhanced
expression of LAMP-1 over peptide alone [3]: enhanced
cytokine production (IFN-γ/TNF-α) (exhausted P14 cells): enhanced
enhancement of CD8^+ T cell proliferation [4, 10]: 2-3 fold
OT-I cell activation with alternative APC sources [4, 11]: enhancement
enhancement of CD4^+ T cell proliferation [5, 10]: 2-3 fold
OT-II cell activation with alternative APC sources [5, 11]: enhancement
binding of recombinant CD28-Fc to desialylated DCs compared to untreated controls (DCs (expressing CD80)): significant enhancement

NeuAcα2-3Galβ1-4(Fucα1-3)GlcNAc [sialylated-Lewis X]
T cell proliferation (OT-II cells [6]): significant reduction

αhPD1-S (409A11), conjugate of anti-human PD-1 clone 409A11 and Salmonella typhimurium sialidase (from UniProt P29768 2-382)
desialylation of Jurkat-PD1-GFP against Jurkat T cells (lectin staining SNA, PNA, MAA-II, flow cytometry) [7]: > 100 fold
fold decrease in level of αPD1-S needed for similar desialylation of Jurkat-PD1-GFP against native Jurkat cells [7]: 100 to 1000 fold

Pembrolizumab [409A11]
sialidase activity against MUNANA [8]: 26 U mL-1
affinity for mPD1 (mouse PD-1 (mPD1)): no affinity

α2,3-Sialyl-triLacNAc [soluble sialylated glycan]
Kd (human CD28): 112 µM

B1: anti-mouse PD-1 monoclonal antibody clone J43 (antibody, from another filing, V domains shown)
VH: EVRLLESGGGLVKPEGSLKLSCVASGFTFSDYFMSWVRQAPGKGLEWVAHIYTKSYNYATYYSGSVKGRFTISRDDSRSMVYLQMNNLRTEDTATYYCTRDGSGYPSLDFWGQGTQVTVSS
VL: YELTQPPSASVNVGETVKITCSGDQLPKYFADWFHQRSDQTILQVIYDDNKRPSGIPERISGSSSGTTATLTIRDVRAEDEGDYYCFSGYVDSDSKLYVFGSGTQLTVLG
EC50 (mouse PD-1 (mouse)): 0.39 µg/mL

B2: recombinant chimeric mouse CD28 fused to human Fc (Fc fusion, UniProt P31041 20-150, looked up)
chain: NKILVKQSPLLVVDSNEVSLSCRYSYNLLAKEFRASLYKGVNSDVEVCVGNGNFTYQPQFRSNAEFNCDGDFDNETVTFRLWNLHVNHTDIYFCKIEFMYPPPYLDNERSNGTIIHIKEKHLCHTQSSPKL
notes: Commercial Fc chimera; also called CD28-Fc; not shown: human Fc
binding result [9]: binds

B3: anti-human PD-1 monoclonal antibody clone 1H3 (antibody, V domains shown)
VH: EVQLVESGGGLVKPGGSLKLSCAASGFTFSDYGMHWVRQAPEKGLEWVAYISSGSYTIYYTDTVKGRFTISRDNAKNTLFLQMTSLRSEDTAMYYCARRGYGSFYEYYFDYWGQGTTLTVSS
VL: QIVLTQSPALMSASPGEKVTMTCSASSSVSYMYWYQQKPRSSPKPWIYLTSNLASGVPARFSGSGSGTSYSLTISSMEAEDAATYYCQQWSSNPFTFGSGTKLEIK
EC50 (human PD-1): 0.16 µg/mL
